Results published in US20240228487A1, “FUSED HETEROCYCLIC COMPOUND AND APPLICATION THEREOF, PHARMACEUTICAL COMPOSITIONS CONTAINING SAME AND APPLICATION THEREOF” (ZHEJIANG UNIVERSITY, priority 2021, published 2024).

What was measured:
[1] = test system: C57BL/6 mice, transient middle cerebral artery occlusion (tMCAO); experiment: mouse tMCAO cerebral stroke model (Embodiment 69); assay type: in vivo; conditions: 3 mg/kg tail vein injection 3 h after reperfusion
From the text: After isoflurane inhalation gas anesthesia of 22-25 g male C57BL/6 mice, the fiber-optic probes of a laser Doppler flowmeter were fixed to the skull of the mice with glue for monitoring the cerebral blood flow of the middle cerebral artery (MCA) supplying cortex. The mice were fixed in the supine position, and the middle of the neck was dehaired and routinely sterilized with 75% alcohol. An approximately 1.5 cm incision was made in the middle of the neck, and the skin of the neck was incised, and the muscle and fascia were separated along the inner edge of the sternocleidomastoideole; the right carotid artery sheath was bluntly separated to expose the right common carotid artery (CCA), external carotid artery (ECA), and internal carotid artery (ICA); after the surgical area was exposed satisfactorily, the CCA and ICA were temporarily clipped with arterial clips, and a small incision was made at the proximal end of the ECA with microsurgical scissors, and a nylon monofilament suture was inserted from the small incision along the ECA, and gently pushed into the intracranial area in the direction of the ICA for about 11.5±0.5 mm, blocking the beginning of the middle cerebral artery. Only the animals whose blood flow values decreased to 20% of the basic value were selected according to the blood flow data monitored by the flowmeter. After 90 minutes of ischemia, the monofilament sutures were gently withdrawn out, the arterial stumps were tied tightly, the surgical wounds were inspected, the bleeding was thoroughly stopped, a small amount of penicillin powder was sprinkled locally to prevent infection, and the subcutaneous tissues and the skin were sutured layer by layer, thus completing the ischemia reperfusion injury model. A heating plate was used to maintain the body temperature of the animals during surgery. After completion of the surgery, the sutured mice were placed in a heat preservation and humidification box until the mice recovered activities. Animals in the sham-operated group were subjected to the same surgical procedure but without middle artery occlusion.
Clean-grade male C57BL/6 mice were randomly divided into five groups, namely, the sham-operated group, the group of the positive control drug Edaravone(3 mg/kg), and the 3 mg/kg dose group of compounds II-1, II-23 and III-1.
The mice were subjected to tail vein injections of Edaravone, II-1, II-23, and III-1 respectively 3 h after modeling and reperfusion; the sham-operated group was injected with an equal volume of saline, and II-1, II-23, III-1, and Edaravone were dissolved in 0.9% saline solution. Neurological function scores and TTC staining of mice were performed 24 h after ischemia-reperfusion, and the results are shown in FIGS. 6, 7 and 8.
The mice were decapitated 24 h after ischemia-reperfusion, the coronal planes of the brains were cut into brain slices of about 2 mm thickness uniformly. The brain slices were placed in 0.25% 2,3,5-triphenyltetrazolium chloride (TTC) solution, incubated at 37° C. Celsius for 30 minutes away from light, stained, and fixed in 4% paraformaldehyde neutral buffer (pH 7.4) overnight. The processed brain slices were photographed using a macro camera, and Image J image analysis software was used to calculate and count the cerebral infarct volume, and the measured results are shown in FIG. 7. The formula for calculating the percentage of infarct volume was (sum of the left uninfarcted area −sum of the right uninfarcted area)/sum of the left uninfarcted area×100%.
According to the five-level, four-point standard of score, the mortality and neuromotor dysfunction scores of each group of mice were performed, and the results are shown in FIG. 8. […]

[2] = test system: dopaminergic neurons differentiated from iPSC derived from disseminated PD patients; experiment: mitochondrial fusion morphology (Mitotracker, Girk2 labeling) of iPSC differentiated dopaminergic neurons; assay type: cell-based, human; conditions: II-23 0.6 μM, ACA 0.5 μM; Mitotracker staining, Girk2-positive neurons
Procedure: Using normal and disseminated PD patient-derived induced pluripotent stem cells (iPSC), performing drug interventions using the TRPM2 inhibitors ACA and II-23 after they were induced and differentiated into mature dopaminergic neurons, the drug treating method is as follows: • a. Calculating the materials for the experiment, and starting preparing when the dopaminergic neurons are differentiated to the 8th day. The petri dishes should be treated with 33 μg/mL PDL overnight and washed with sterilized water. After drying, 2 μg/mL of laminin was added and incubated overnight. Both PDL and laminin can be recycled for reuse. • b. […] Fluorescence confocal imaging was performed using a confocal dish inoculated with 2 mL/dish, and cell viability assays were performed using a 96-well plate inoculated with 100 μL/well. […]
Positive dopamine neurons were labeled with a dopaminergic neuron marker molecule Girk2 antibody susceptible for SNc, and cellular mitochondria were labeled with the mitochondrial dye mitotracker as in FIG. 15. […] Finally, performing the fluorescence imaging: removing the secondary antibody, and washing three times with 1×PBS, adding 50% Glycerol for fluorescence protection, and then imaging with a Zeiss LSM880 laser confocal microscope, as shown in FIG. 15.

## CCN(CC)C(=O)c1cc(C(=O)c2ccccc2)n2cccc2c1 [II-23, 5-Benzoyl-N, N-diethylindolizine-7-formamide]
[1]; TTC staining 24 h after ischemia-reperfusion
  area of cerebral infarction caused by tMCAO: significantly reduced
[1]; scored 24 h after ischemia-reperfusion
  neuromotor dysfunction scores caused by tMCAO: significantly reduced
[2]
  excessive mitochondrial fusion in dopaminergic neurons derived from PD patients: reversed
